In article PMC7497679, “Structure-based design, synthesis, and evaluation of the biological activity of novel phosphoroorganic small molecule IAP antagonists” (Investigational New Drugs, 2020):
Where two headings read alike, the source gives them in different places. Peptide text beside a SMILES is read from it.

Target: T1, XIAP BIR3 domain (Homo sapiens, UniProt P98170)
T1 construct: fluorescent probe 4 and the XIAP BIR3 domain (Sino Biological, Beijing, China) were used for all measurements; purchased Sino Biological, Beijing, China
Test: Fluorescence polarization inhibition (competition) assay
Type: binding
Details: for inhibition at 50 µM: 0.5 h
Experimental: The fluorescence polarization assay was performed at r.t. in Corning 384-well black, polystyrene flat bottom plates (Corning, NY, USA) on a Synergy H4 Hybrid Reader (BioTek, Bad Friedrichshall, Germany). For fluorescence polarization measurements, (milipolarization units, mP) 484/20 nm excitation and 528/20 nm emission filters were selected. Phosphate buffer (pH 7.5) supplemented with γ-globulin (100 µg/mL) and NaN3 (0.02% w/v), fluorescent probe 4 and the XIAP BIR3 domain (Sino Biological, Beijing, China) were used for all measurements. All experiments were performed in duplicate. The obtained fluorescence polarization assay data were analyzed with Prism 5.0 Software (GraphPad Software, San Diego, ca.).
After a 15 min incubation at r.t., fluorescent probe 4 (2 nM) was added. The values were measured 30 min after the moment the probe was added. The assay was performed in phosphate buffer with a final DMSO concentration of 1.4% (v/v). […] In order to evaluate the quality and precision of the performed screening assay, we determined the Z´ factor as described by Zhang et al.. The obtained fluorescence polarization values were used to determine the percent inhibition, which was plotted as a function of the protein concentration. The EC50 and Ki values were calculated with GraphPad software (log(agonist) vs. response (variable slope) model) in combination with the web tool developed by Nikolovska-Coleska et al..
Fluorescence polarization inhibition assay and data analysis for 41m and 42m compounds was performed as described in the Material and Methods section of the manuscript. Briefly, 50 nM solution of the BIR3 XIAP protein in polarization buffer was added into phosphoroorganic compound solution (from 50 μM to 0.0537 nM). After 15 min incubation at r.t. the fluorescent probe 4 (2 nM) was added.
The values were read after 30 minutes from the moment the probe was added. The obtained fluorescence polarization values were used to determine the percentage of inhibition which was plotted as a function of the protein concentration (Supplementary Figure S4).
(1 picture or pasted object on this page, not shown here)

[1] = XIAP BIR3 50 nM, fluorescent probe 4 2 nM, read-out: EC50
[2] = antagonist 50 µM, inhibition of protein-probe interaction
[3] = XIAP BIR3 50 nM, fluorescent probe 4 2 nM
[4] = XIAP BIR3 50 nM, fluorescent probe 4 2 nM, read-out: log EC50 (converted)

T1 sequence (P98170 252-356 limits assumed): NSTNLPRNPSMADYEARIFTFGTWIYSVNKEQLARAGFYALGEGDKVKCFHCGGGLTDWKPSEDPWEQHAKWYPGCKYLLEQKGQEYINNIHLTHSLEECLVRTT

| EC50 [1] [µM] | inhibition at 50 µM [2] [%] | Ki [3] [µM] | EC50 [4] [µM] | log EC50 [3] [µM] | % Inh (50 µM) [2] [%] | Structure (SMILES) |
| --- | --- | --- | --- | --- | --- | --- |
| 0.34 | – | – | – | – | – | CC(C)[C@H](NC(=O)[C@H](C)N)C(=O)N1CCC[C@H]1C(=O)N[C@@H](Cc1c[nH]c2ccccc12)C(=O)O [Compound 3, H2N-Ala-Val-Pro-Trp-OH, reference compound] (H-AVPW-OH) |
| 29.6 | 63.2 | 14.7 | 29.6 | – | – | CN[C@@H](C)C(=O)N[C@H](C(=O)N1CCC[C@H]1C(=O)NCP(=O)(C(C)(C)C)C(C)(C)C)C(C)C [Compound 5] |
| 19.9 | 72 | 9.87 | 19.9 | – | – | CN[C@@H](C)C(=O)N[C@H](C(=O)N1CCC[C@H]1C(=O)NCP(=O)(C(C)(C)C)C(C)(C)C)C1CCCCC1 [Compound 6] |
| – | 32 | – | – | – | – | CN[C@@H](C)C(=O)N[C@H](C(=O)N1CCC[C@H]1C(=O)NCP(=O)(C(C)C)C(C)C)C(C)C [Compound 7] |
| – | 41.3 | – | – | – | – | CN[C@@H](C)C(=O)N[C@H](C(=O)N1CCC[C@H]1C(=O)NCP(=O)(C(C)C)C(C)C)C1CCCCC1 [Compound 8] |
| – | ~25 | – | – | – | – | CN[C@@H](C)C(=O)N[C@H](C(=O)N1CCC[C@H]1C(=O)NCP(=O)(C1CCCCC1)C1CCCCC1)C(C)C [Compound 9] |
| – | ~25 | – | – | – | – | CN[C@@H](C)C(=O)N[C@H](C(=O)N1CCC[C@H]1C(=O)NCP(=O)(C1CCCCC1)C1CCCCC1)C1CCCCC1 [Compound 10] |
| 29.3 | 63.6 | 14.5 | 29.4 | – | – | CN[C@@H](C)C(=O)N[C@H](C(=O)N1CCC[C@H]1C(=O)NCP(=O)(c1ccccc1)c1ccccc1)C(C)C [Compound 11] |
| 26.3 | – | 13 | – | 1.420 ± 0.051 | 67.1 | CN[C@@H](C)C(=O)N[C@H](C(=O)N1CCC[C@H]1C(=O)NCP(=O)(c1ccccc1)c1ccccc1)C1CCCCC1 [Compound 12] |
| 30.8 | 61.6 | 15.3 | 30.8 | – | – | CN[C@@H](C)C(=O)N[C@H](C(=O)N1CCC[C@H]1C(=O)NCP(=O)(c1ccc(C)cc1)c1ccc(C)cc1)C(C)C [Compound 15, (S)-N-((di-p-tolylphosphoryl)methyl)-1-((S)-3-methyl-2-((S)-2-(methylamino)propanamido)butanoyl)pyrrolidine-2-carboxamide] |
| 40.3 | 57 | 20 | 40.4 | – | – | CN[C@@H](C)C(=O)N[C@H](C(=O)N1CCC[C@H]1C(=O)NCP(=O)(c1ccc(C)cc1)c1ccc(C)cc1)C1CCCCC1 [Compound 16, (S)-1-((S)-2-cyclohexyl-2-((S)-2-(methylamino)propanamido)acetyl)-N-((di-p-tolylphosphoryl)methyl)pyrrolidine-2-carboxamide] |
| 19.3 | 74 | 9.55 | 19.3 | – | – | CN[C@@H](C)C(=O)N[C@H](C(=O)N1CCC[C@H]1C(=O)NC(C)P(=O)(c1ccc(C)cc1)c1ccc(C)cc1)C1CCCCC1 (stereo partly drawn) [Compound 17, (2S)-1-((S)-2-cyclohexyl-2-((S)-2-(methylamino)propanamido)acetyl)-N-(1-(di-p-tolylphosphoryl)ethyl)pyrrolidine-2-carboxamide] |
| 29.3 | 62 | 14.5 | 29.2 | – | – | CN[C@@H](C)C(=O)N[C@H](C(=O)N1CCC[C@H]1C(=O)NCP(=O)(c1ccccc1C)c1ccccc1C)C(C)C [Compound 18, (S)-N-((di-o-tolylphosphoryl)methyl)-1-((S)-3-methyl-2-((S)-2-(methylamino)propanamido)butanoyl)pyrrolidine-2-carboxamide] |
| 28 | 66.2 | 13.9 | 28.1 | – | – | CN[C@@H](C)C(=O)N[C@H](C(=O)N1CCC[C@H]1C(=O)NCP(=O)(c1ccccc1C)c1ccccc1C)C1CCCCC1 [Compound 19, (S)-1-((S)-2-cyclohexyl-2-((S)-2-(methylamino)propanamido)acetyl)-N-((di-o-tolylphosphoryl)methyl)pyrrolidine-2-carboxamide] |
| 48 | 50 | 23.8 | 48 | – | – | CN[C@@H](C)C(=O)N[C@H](C(=O)N1CCC[C@H]1C(=O)NCP(=O)(c1cc(C)cc(C)c1)c1cc(C)cc(C)c1)C(C)C [Compound 20, (S)-N-((bis(3,5-dimethylphenyl)phosphoryl)methyl)-1-((S)-3-methyl-2-((S)-2-(methylamino)propanamido)butanoyl)pyrrolidine-2-carboxamide] |
| 22.5 | 74.4 | 11.2 | 22.5 | – | – | CN[C@@H](C)C(=O)N[C@H](C(=O)N1CCC[C@H]1C(=O)NCP(=O)(c1cc(C)cc(C)c1)c1cc(C)cc(C)c1)C1CCCCC1 [Compound 21] |
| 32.5 | 59.2 | 16.1 | 32.4 | – | – | CN[C@@H](C)C(=O)N[C@H](C(=O)N1CCC[C@H]1C(=O)NC(C)P(=O)(c1cc(C)cc(C)c1)c1cc(C)cc(C)c1)C(C)C (some centres unmarked) [Compound 22] |

| Structure (SMILES) | EC50 [1] [µM] | inhibition at 50 µM [2] [%] | Ki [3] [µM] | EC50 [4] [µM] | log EC50 [3] [µM] | % Inh (50 µM) [2] [%] |
| --- | --- | --- | --- | --- | --- | --- |
| CCc1ccc(OP(=O)(Oc2ccc(CC)cc2)C(C)NC(=O)[C@@H]2CCCN2C(=O)[C@@H](NC(=O)[C@H](C)NC)C(C)C)cc1 (some centres unmarked) [Compound 23] | 34.2 | 64.1 | 17 | 34.3 | – | – |
| CCc1ccc(OP(=O)(Oc2ccc(CC)cc2)C(C)NC(=O)[C@@H]2CCCN2C(=O)[C@@H](NC(=O)[C@H](C)NC)C2CCCCC2)cc1 (some centres unmarked) [Compound 24] | 20.5 | 74.1 | 10.2 | 20.6 | – | – |
| CN[C@@H](C)C(=O)N[C@H](C(=O)N1CCC[C@H]1C(=O)NC(C)P(=O)(Oc1ccc(C(C)C)cc1)Oc1ccc(C(C)C)cc1)C(C)C (some centres unmarked) [Compound 25] | 22 | 81.8 | 10.9 | 22 | – | – |
| CN[C@@H](C)C(=O)N[C@H](C(=O)N1CCC[C@H]1C(=O)NC(C)P(=O)(Oc1ccc(C(C)C)cc1)Oc1ccc(C(C)C)cc1)C1CCCCC1 (some centres unmarked) [Compound 26] | 19.8 | 85.8 | 9.84 | 19.8 | – | – |
| CN[C@@H](C)C(=O)N[C@H](C(=O)N1CCC[C@H]1C(=O)NC(C)P(=O)(Oc1ccc(C(C)(C)C)cc1)Oc1ccc(C(C)(C)C)cc1)C(C)C (stereo partly drawn) [Compound 27, bis(4-(tert-butyl)phenyl) (1-((S)-1-((S)-3-methyl-2-((S)-2-(methylamino)propanamido)butanoyl)pyrrolidine-2-carboxamido)ethyl)phosphonate] | 21.3 | 83.3 | 10.5 | 21.3 | – | – |
| CN[C@@H](C)C(=O)N[C@H](C(=O)N1CCC[C@H]1C(=O)NC(C)P(=O)(Oc1ccc(C(C)(C)C)cc1)Oc1ccc(C(C)(C)C)cc1)C1CCCCC1 (stereo partly drawn) [Compound 28, bis(4-(tert-butyl)phenyl) (1-((S)-1-((S)-2-cyclohexyl-2-((S)-2-(methylamino)propanamido)acetyl)pyrrolidine-2-carboxamido)ethyl)phosphonate] | 26.8 | 77.3 | 13.3 | 26.7 | – | – |
| CN[C@@H](C)C(=O)N[C@H](C(=O)N1CCC[C@H]1C(=O)NC(C)P(=O)(Oc1ccccc1)Oc1ccccc1)C(C)C (stereo partly drawn) [Compound 29, diphenyl (1-((S)-1-((S)-3-methyl-2-((S)-2-(methylamino)propanamido)butanoyl)pyrrolidine-2-carboxamido)ethyl)phosphonate] | 31.9 | 62.1 | 15.8 | 31.8 | – | – |
| CN[C@@H](C)C(=O)N[C@H](C(=O)N1CCC[C@H]1C(=O)NC(C)P(=O)(Oc1ccccc1)Oc1ccccc1)C1CCCCC1 (stereo partly drawn) [Compound 30, diphenyl (1-((S)-1-((S)-2-cyclohexyl-2-((S)-2-(methylamino)propanamido)acetyl)pyrrolidine-2-carboxamido)ethyl)phosphonate] | 30.2 | 69 | 15 | 30.3 | – | – |
| CCC(NC(=O)[C@@H]1CCCN1C(=O)[C@@H](NC(=O)[C@H](C)NC)C(C)C)P(=O)(Oc1ccccc1)Oc1ccccc1 (stereo partly drawn) [Compound 31, diphenyl (1-((S)-1-((S)-3-methyl-2-((S)-2-(methylamino)propanamido)butanoyl)pyrrolidine-2-carboxamido)propyl)phosphonate] | 38 | 57 | 18.8 | 38 | – | – |
